SMILES strings stand for the structures.

The target of one experiment is T1, B1R of the rat (Rattus norvegicus, UniProt P97583).
T1 construct: expressed in transfected cells; host or cells: CHO K1 cells (Chinese hamster ovary), stably transfected
T1 sequence (P97583 1-337): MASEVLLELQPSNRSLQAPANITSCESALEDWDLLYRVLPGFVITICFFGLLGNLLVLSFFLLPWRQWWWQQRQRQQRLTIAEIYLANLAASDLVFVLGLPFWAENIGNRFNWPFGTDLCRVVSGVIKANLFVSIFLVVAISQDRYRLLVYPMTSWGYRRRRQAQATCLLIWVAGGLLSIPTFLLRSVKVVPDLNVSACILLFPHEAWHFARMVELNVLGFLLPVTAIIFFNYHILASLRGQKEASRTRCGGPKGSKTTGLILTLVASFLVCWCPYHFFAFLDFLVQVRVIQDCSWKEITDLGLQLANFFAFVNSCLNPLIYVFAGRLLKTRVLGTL
The experiment is described as follows: FLIPR Ca2+ functional assay, B1R antagonism, rat B1R in CHO K1 cells. It is filed as cell-based. To be noted: test substance 10 μM; rB1R CHO K1 cells; agonist Des-Arg9 bradykinin at EC80; % of maximum achievable inhibition. A digest of the protocol:
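IC50 values come from varied compound concentrations applied 10-20 min before an EC80 agonist challenge, with Des-Arg9 bradykinin for rat and Lys-Des-Arg9 bradykinin for human receptor. Ca2+ influx in Fluo-4-loaded CHO K1 transfectants was measured by FLIPR peak fluorescence. Data are % inhibition vs maximum, n=2-3, N>=2.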
For the compound `COc1cc(C)c(S(=O)(=O)N2CCn3cccc3C2CC(=O)N2CCN(C3CCN(C)CC3)CC2)c(C)c1` (stereo not shown) [Example 1, 2-(2-(4-Methoxy-2,6-dimethylphenylsulfonyl)-1,2,3,4-tetrahydro-pyrrolo[1,2-a]pyrazin-1-yl)-1-(4-(1-methylpiperidin-4-yl)piperazin-1-yl)ethanone], the inhibition (commonly the relative decrease from the control value, in per cent) at 10 µM was 100%.

Regarding `COc1cc(C)c(S(=O)(=O)N2CCn3cccc3C2CC(=O)N2CCC(Cc3ccccc3)CC2)c(C)c1` (stereo not shown) [Example 257, 1-(4-Benzyl-piperidin-1-yl)-2-[2-[(4-methoxy-2,6-dimethyl-phenyl)sulfonyl]-1,2,3,4-tetrahydro-pyrrolo[1,2-a]pyrazin-1-yl]-ethanone], the inhibition at 10 µM came to 75.5%.

Turning to `COc1cc(C)c(S(=O)(=O)N2CCn3cccc3C2CC(=O)N2CCN(CCO)CC2)c(C)c1` (stereo not shown) [Example 258, 1-[4-(2-Hydroxy-ethyl)-piperazin-1-yl]-2-[2-[(4-methoxy-2,6-dimethyl-phenyl)sulfonyl]-1,2,3,4-tetrahydro-pyrrolo[1,2-a]pyrazin-1-yl]-ethanone], the inhibition at 10 µM was found to be 9.05%.

On to `Cc1cccc(Cl)c1S(=O)(=O)N1CCn2cccc2C1CC(=O)N(C)C(CN1CCOCC1)c1ccccc1` (stereo not shown) [Example 259, 2-[2-[(2-Chloro-6-methyl-phenyl)sulfonyl]-1,2,3,4-tetrahydro-pyrrolo[1,2-a]pyrazin-1-yl]-N-methyl-N-(2-morpholin-4-yl-1-phenyl-ethyl)-acetamide], for which the inhibition at 10 µM came out at 4.54%.

Take `Cc1cccc(Cl)c1S(=O)(=O)N1CCn2cccc2C1CC(=O)N1CCC[C@H]1CN1CCCC1` (stereo partly drawn) [Example 260, 2-[2-[(2-Chloro-6-methyl-phenyl)sulfonyl]-1,2,3,4-tetrahydro-pyrrolo[1,2-a]pyrazin-1-yl]-1-[(2S)-2-(pyrrolidin-1-yl-methyl)-pyrrolidin-1-yl]-ethanone]: the inhibition at 10 µM is -11.4%.

Turning to `Cc1cccc(Cl)c1S(=O)(=O)N1CCn2cccc2C1CC(=O)N1CCN(c2ncccc2C#N)CC1` (stereo not shown) [Example 261, 2-[4-[2-[2-[(2-Chloro-6-methyl-phenyl)sulfonyl]-1,2,3,4-tetrahydro-pyrrolo[1,2-a]pyrazin-1-yl]-acetyl]-piperazin-1-yl]-pyridine-3-carbonitrile], the inhibition at 10 µM stood at 29.8%.

With `Cc1cccc(Cl)c1S(=O)(=O)N1CCn2cccc2C1CC(=O)N1CCN(c2ncc(C(F)(F)F)cc2Cl)CC1` (stereo not shown) [Example 262, 2-[2-[(2-Chloro-6-methyl-phenyl)sulfonyl]-1,2,3,4-tetrahydro-pyrrolo[1,2-a]pyrazin-1-yl]-1-[4-[3-chloro-5-(trifluoromethyl)-pyridin-2-yl]-piperazin-1-yl]-ethanone], the inhibition at 10 µM was -12.5%.

Regarding `Cc1cccc(Cl)c1S(=O)(=O)N1CCn2cccc2C1CC(=O)N1CCN(CCO)CC1` (stereo not shown) [Example 263, 2-[2-[(2-Chloro-6-methyl-phenyl)sulfonyl]-1,2,3,4-tetrahydro-pyrrolo[1,2-a]pyrazin-1-yl]-1-[4-(2-hydroxy-ethyl)-piperazin-1-yl]-ethanone], the inhibition at 10 µM was 2.37%.

As to `O=C(CC1c2cccn2CCN1S(=O)(=O)c1ccccc1)N1CCC[C@H]1CN1CCCC1` (stereo partly drawn) [Example 264, 2-[2-(Benzenesulfonyl)-1,2,3,4-tetrahydro-pyrrolo[1,2-a]pyrazin-1-yl]-1-[(2S)-2-(pyrrolidin-1-yl-methyl)-pyrrolidin-1-yl]-ethanone], the inhibition at 10 µM is 1.78%.

As to `O=C(CC1c2cccn2CCN1S(=O)(=O)c1ccccc1)N1CCN(c2ncc(C(F)(F)F)cc2Cl)CC1` (stereo not shown) [Example 265, 2-[2-(Benzenesulfonyl)-1,2,3,4-tetrahydro-pyrrolo[1,2-a]pyrazin-1-yl]-1-[4-[3-chloro-5-(trifluoromethyl)-pyridin-2-yl]-piperazin-1-yl]-ethanone], the inhibition at 10 µM worked out at 17.9%.

Take `O=C(CC1c2cccn2CCN1S(=O)(=O)c1ccccc1)N1CCN(Cc2ccc(Cl)c(Cl)c2)CC1` (stereo not shown) [Example 266, 2-[2-(Benzenesulfonyl)-1,2,3,4-tetrahydro-pyrrolo[1,2-a]pyrazin-1-yl]-1-[4-[(3,4-dichlorophenyl)-methyl]-piperazin-1-yl]-ethanone]: the inhibition at 10 µM was -3.52%.

With `CN1CCN(C(=O)CC2c3cccn3CCN2S(=O)(=O)c2ccccc2)C(c2ccccc2)C1` (stereo not shown) [Example 267, 2-[2-(Benzenesulfonyl)-1,2,3,4-tetrahydro-pyrrolo[1,2-a]pyrazin-1-yl]-1-(4-methyl-2-phenyl-piperazin-1-yl)-ethanone], the inhibition at 10 µM was -4.75%.

In the case of `O=C(CC1c2cccn2CCN1S(=O)(=O)c1ccccc1)N1CCC(c2ccccc2)CC1` (stereo not shown) [Example 268, 2-[2-(Benzenesulfonyl)-1,2,3,4-tetrahydro-pyrrolo[1,2-a]pyrazin-1-yl]-1-(4-phenyl-piperidin-1-yl)-ethanone], the inhibition at 10 µM amounted to 28%.

As to `N#Cc1cccnc1N1CCN(C(=O)CC2c3cccn3CCN2S(=O)(=O)c2cccc(C(F)(F)F)c2)CC1` (stereo not shown) [Example 269, 2-[4-[2-[2-[[3-(Trifluoromethyl)phenyl]sulfonyl]-1,2,3,4-tetrahydro-pyrrolo[1,2-a]pyrazin-1-yl]-acetyl]-piperazin-1-yl]-pyridine-3-carbonitrile], the inhibition at 10 µM stood at 1.05%.

Turning to `CN(C)c1ccc(C2CCCN2C(=O)CC2c3cccn3CCN2S(=O)(=O)c2ccc(C(F)(F)F)cc2Cl)cc1` (stereo not shown) [Example 270, 2-[2-[[2-Chloro-4-(trifluoromethyl)-phenyl]sulfonyl]-1,2,3,4-tetrahydro-pyrrolo[1,2-a]pyrazin-1-yl]-1-[2-(4-dimethylaminophenyl)-pyrrolidin-1-yl]-ethanone], the inhibition at 10 µM turned out to be 3.1%.

In a further experiment the target is T2, human B1R (Homo sapiens, UniProt P46663).
T2 construct: expressed in transfected cells; host or cells: CHO K1 cells (Chinese hamster ovary), stably transfected
T2 sequence (P46663 1-353): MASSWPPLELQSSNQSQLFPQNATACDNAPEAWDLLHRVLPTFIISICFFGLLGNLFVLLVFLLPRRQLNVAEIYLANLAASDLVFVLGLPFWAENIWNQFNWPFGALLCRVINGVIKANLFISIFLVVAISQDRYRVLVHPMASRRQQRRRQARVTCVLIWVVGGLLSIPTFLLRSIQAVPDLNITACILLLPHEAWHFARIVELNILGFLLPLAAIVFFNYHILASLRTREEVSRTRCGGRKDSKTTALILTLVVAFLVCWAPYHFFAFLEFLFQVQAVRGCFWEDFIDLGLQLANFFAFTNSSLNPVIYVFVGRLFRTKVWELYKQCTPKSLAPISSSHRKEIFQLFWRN
The experiment is described as follows: FLIPR Ca2+ functional assay, B1R antagonism, human B1R in CHO K1 cells. The conditions noted are these: test substance 10 μM; hB1R CHO K1 cells; agonist Lys-Des-Arg9 bradykinin at EC80; % of maximum achievable inhibition. The class given is cell-based. As for the experimental part: The agonistic or antagonistic action of substances on the bradykinin 1 receptor (B1R) of the human and rat species can be quantified with ectopically expressing cell lines (CHO K1 cells) and with the aid of a Ca^2+-sensitive dye (Fluo-4) using a fluorescent imaging plate reader (FLIPR). The value in % activation is based on the Ca^2+ signal after addition of Lys-Des-Arg^9 bradykinin (0.5 nM) or Des-Arg^9 bradykinin (100 nM). Antagonists lead to a suppression of the Ca^2+ influx following administration of the agonist. The % inhibition in comparison with the maximum achievable inhibition is indicated.
1. Functional Investigation on the Bradykinin 1 Receptor (B1R) The agonistic or antagonistic action of substances can be determined on the bradykinin 1 receptor (B1R) of the human and rat species with the following assay. According to this assay, the Ca^2+ inflow through the channel is quantified with the aid of a Ca^2+-sensitive dye (Fluo-4 type, Molecular Probes Europe BV, Leiden, Netherlands) in a fluorescent imaging plate reader (FLIPR, Molecular Devices, Sunnyvale, USA). 2. Method: Chinese hamster ovary cells (CHO K1 cells) which are stably transfected with the human B1R gene (hB1R cells) or the B1R gene of the rat (rB1R cells) are used. For functional investigations these cells are plated-out onto black 96-well plates with a clear base (BD Biosciences, Heidelberg, Germany or Greiner, Frickenhausen, Germany) in a density of 20,000-35,000 cells/well. Overnight the cells are incubated at 37° C. and 5% CO2 in culture medium (hB1R cells: Ham's Nutrient Mixture F12, Gibco Invitrogen GmbH, Karlsruhe, Germany or DMEM, Sigma-Aldrich, Taufkirchen, Germany; rB1R cells: D-MEM/F12, Gibco Invitrogen, Karlsruhe, Germany) with 10 vol. % FBS (foetal bovine serum, Gibco Invitrogen GmbH, Karlsruhe, Germany or PAN Biotech GmbH, Aidenbach, Germany).
On the following day the cells are loaded with 2.13 μM Fluo-4 (Molecular Probes Europe BV, Leiden, Netherlands) in HBSS buffer (Hank's buffered saline solution, Gibco Invitrogen GmbH, Karlsruhe, Germany) with 2.5 mM probenecid (Sigma-Aldrich, Taufkirchen, Germany) and 10 mM HEPES (Sigma-Aldrich, Taufkirchen, Germany) for 60 min at 37° C. The plates are subsequently washed twice with HBSS buffer, and HBSS buffer which additionally contains 0.1% BSA (bovine serum albumin; Sigma-Aldrich, Taufkirchen, Germany), 5.6 mM glucose and 0.05% gelatine (Merck KGaA, Darmstadt, Germany) is added. After a further incubation of 20 minutes at RT, the plates are inserted into the FLIPR for Ca^2+ measurement. Alternatively they are washed with buffer A (15 mM HEPES, 80 mM NaCl, 5 mM KCl, 1.2 mM CaCl2, 0.7 mM MgSO4, 2 g/l glucose, 2.5 mM probenecid) and loaded with buffer A with added 2.5 μM Fluo-4 and 0.025% Pluronic F127 (Sigma-Aldrich, Taufkirchen, Germany). The cells are then washed twice with buffer A and incubated for 30 minutes with buffer A, which additionally contains 0.05% BSA and 0.05% gelatine, at RT and then used for Ca^2+ measurement in the FLIPR. The Ca^2+-dependent fluorescence is measured here before and after addition of substances (λex=488 nm, λem=540 nm). The quantification is performed by measuring the highest fluorescence intensity (FC, fluorescence counts) over time.
The FLIPR protocol comprises two additions of substance. Test substances (10 μM) are first pipetted onto the cells and the Ca^2+ inflow is compared with the control (hB1R: Lys-Des-Arg^9 bradykinin >=50 nM; rB1R: Des-Arg^9 bradykinin 10 μM). The value in % activation based on the Ca^2+ signal after addition of Lys-Des-Arg^9 bradykinin (>=50 nM) or Des-Arg^9 bradykinin (10 μM) is obtained therefrom. After incubation for 10-20 minutes, Lys-Des-Arg^9 bradykinin (hB1R) or Des-Arg^9 bradykinin (rB1R) is applied in the EC80 concentration and the inflow of Ca^2+ is likewise determined.
Antagonists lead to a suppression of the Ca^2+ inflow. The % inhibition in comparison with the maximum achievable inhibition is calculated. […]
With `COc1cc(C)c(S(=O)(=O)N2CCn3cccc3C2CC(=O)N2CCN(C3CCN(C)CC3)CC2)c(C)c1` (stereo not shown) [Example 1, 2-(2-(4-Methoxy-2,6-dimethylphenylsulfonyl)-1,2,3,4-tetrahydro-pyrrolo[1,2-a]pyrazin-1-yl)-1-(4-(1-methylpiperidin-4-yl)piperazin-1-yl)ethanone], the inhibition at 10 µM was 94.8%.

For the origin of these results see US8158628B2, “Sulfonylated 1,2,3,4-tetrahydropyrrolo[1,2-a]pyrazine compounds and their use as pharmaceuticals” (Gruenenthal GmbH, priority 2009, dated 2012).
